# Tests used:
# Vero CCL-81 cells = assay: MTT cytotoxicity assay; conditions: for The maximum nontoxic concentration used for primary screening of drugs against CHIKV: Vero CCL-81, ≥90% cell viability
# CHIKV [1] = assay: Immunofluorescence assay (percent infected cells); conditions: posttreatment, IFA, compared to VC
# CHIKV [2] = assay: Viral RNA copy number by quantitative RT-PCR
# CHIKV [3] = assay: Antiviral assay (pre-, co-, posttreatment) with FFU readout; conditions: for anti chikungunya activity: Vero CCL-81, any treatment condition; for IC50 / anti-CHIKV activity in primary screening: FFU; for IC50: Vero CCL-81; for anti-CHIKV activity in primary screening: highest nontoxic concentration
# CHIKV [4] = assay: Time-of-addition assay (extra- and intracellular virus, FFU)
# CHIKV [5] = assay: Western blot of viral capsid (C) protein; assay type: cell-based, Chikungunya virus; conditions: posttreatment, maximal non-toxic concentration, normalized to β-actin
# Description: To investigate the expression of viral proteins, a western blotting assay was performed. […] The cell cultures were subjected to different types of treatment with various concentrations of the appropriate drugs. Cells were lysed using the RIPA buffer and 2X laemmli buffer at 1:1 ratio. The cell culture lysates from uninfected, infected without treatment and infected treated cells were subjected to an electrophoretic run on 10% discontinuous SDS polyacrylamide gels followed by electroblotting onto nitrocellulose membranes. The membranes were then blocked for 30 minutes using phosphate-buffered saline (PBS) containing 5% bovine serum albumin. […] This monoclonal antibody is known to react with the capsid protein of CHIKV and was characterized and purified as described earlier ([Damle et al., 2016]). The membranes were thoroughly rinsed with tris-buffered saline with 0.1% Tween 20 (TBST) after overnight incubation (5 washes totaling a 20-minute soak with rocking), and then they were incubated with the appropriate horseradish peroxidase (HRP) conjugated anti-mouse IgG antibody for two hours while rocking. For developing the blot, ECL substrate (Thermo Scientific) was used in the dark. The image of the blot was captured using the Gel Documentation system (BioRad™, USA), and analysis was done. To quantify the protein signals (density) of the viral protein and housekeeping protein in each lane, ImageJ software was used. After calculating the signal values for each band, the background signals were subtracted from the signal. The relative level of viral protein was normalized to beta-actin (monoclonal antibody 15G5A11/E2, catalog no:MA1-140, Invitrogen, USA). Signal densities were determined using ImageJ software and were plotted using GraphPad Prism software version 7.
# MTT cytotoxicity assay = conditions: African green monkey
# [6] = posttreatment, 6.25 µM, VC 8.870
compound,measurement,setting,value
Cc1ccc(NC(=O)c2ccc(CN3CCN(C)CC3)cc2)cc1Nc1nc(-c2cccnc2)cs1 [Masitinib],cytotoxicity,"Vero CCL-81 cells; Vero CCL-81, even at lowest concentrations",highly toxic
COc1cccc2c1C(=O)c1c(O)c3c(c(O)c1C2=O)C[C@@](O)(C(=O)CO)C[C@@H]3O[C@H]1C[C@H](N)[C@H](O)[C@H](C)O1 [Doxorubicin],reduction in percentage of infected cells,CHIKV [1],prominently observed
same,effect on viral RNA copy number/titre,CHIKV [2]; posttreatment,no decrease
same,effect on viral RNA copy number/titre,CHIKV [2]; pretreatment,no decrease
same,anti chikungunya activity,CHIKV [3],exhibit anti chikungunya activity
same,Selectivity Index (SI),CHIKV [3]; posttreatment,18.24
same,mean log10 viral titer/ml,CHIKV [3]; [6],7.758 log10 FFU/ml
same,mean log10 viral titer/ml,"CHIKV [3]; posttreatment, 12.5 µM, VC 8.870",7.509 log10 FFU/ml
same,mean log10 viral titer/ml,"CHIKV [3]; posttreatment, 25 µM, VC 8.870",7.376 log10 FFU/ml
same,IC50,CHIKV [3]; posttreatment,6.41 µM
same,anti-CHIKV activity in primary screening,CHIKV [3]; posttreatment,effective
same,Selectivity Index (SI),CHIKV [3]; pretreatment,16.95
same,mean log10 viral titer/ml,"CHIKV [3]; pretreatment, 12.5 µM, VC 8.665",7.460 log10 FFU/ml
same,mean log10 viral titer/ml,"CHIKV [3]; pretreatment, 25 µM, VC 8.665",7.333 log10 FFU/ml
same,IC50,CHIKV [3]; pretreatment,6.9 µM
same,anti-CHIKV activity in primary screening,CHIKV [3]; pretreatment,effective
same,effect on intra- and extracellular virus particles,"CHIKV [4]; 25 µM, added at 0, 3 and 6 h",exerted reduction
same,reduction in intracellular virus titer,CHIKV [4]; 12.5 and 6.25 µM,not as prominent as extracellular virus titer
same,viral antigen (C protein) expression,CHIKV [5],significant reduction
same,The maximum nontoxic concentration used for primary screening of drugs against CHIKV,Vero CCL-81 cells,25 µM
same,CC50,MTT cytotoxicity assay,117 ± 8.25 µM
Nc1cccc2c1CN(C1CCC(=O)NC1=O)C2=O (stereo not shown) [Lenalidomide],The maximum nontoxic concentration used for primary screening of drugs against CHIKV,Vero CCL-81 cells,200 µM
CC(C)Cn1c(=O)n(C)c(=O)c2[nH]cnc21 [3-isobutyl 1-methylxanthine],The maximum nontoxic concentration used for primary screening of drugs against CHIKV,Vero CCL-81 cells,50 µM
same,CC50,MTT cytotoxicity assay,177 ± 21.7 µM
CC(C)(C)C#Cc1cc(N(C(=O)[C@H]2CC[C@H](C)CC2)[C@H]2CC[C@H](O)CC2)c(C(=O)O)s1 [Lomibuvir],effect on viral RNA copy number/titre,CHIKV [2]; posttreatment,no change observed
same,anti chikungunya activity,CHIKV [3],exhibit anti chikungunya activity
same,Selectivity Index (SI),CHIKV [3]; posttreatment,19.83
same,mean log10 viral titer/ml,CHIKV [3]; [6],7.655 log10 FFU/ml
same,IC50,CHIKV [3]; posttreatment,1.59 µM
same,anti-CHIKV activity in primary screening,CHIKV [3]; posttreatment,effective
same,effect on virus titer,"CHIKV [4]; 3.125 µM, added at 3 and 6 h",small but significant reduction
same,effect on intra- and extracellular virus titer,"CHIKV [4]; 6.25 µM, added at 0, 3 and 6 h",significantly reduced
same,The maximum nontoxic concentration used for primary screening of drugs against CHIKV,Vero CCL-81 cells,6.25 µM
same,CC50,MTT cytotoxicity assay,31.5 ± 9.63 µM
Cc1nc2c(O)cccc2c(=O)[nH]1 [NU-1025],The maximum nontoxic concentration used for primary screening of drugs against CHIKV,Vero CCL-81 cells,100 µM
C[C@@]12CCC[C@H]1[C@@H]1CC[C@H]3C[C@@H](O)CC[C@]3(C)[C@H]1CC2 [5-α-3-β-androstanol],The maximum nontoxic concentration used for primary screening of drugs against CHIKV,Vero CCL-81 cells,12.5 µM
same,CC50,"Vero CCL-81 cells; read-out: CC50 value ± SE, Vero CCL-81, MTT, 0.78-200 µM",23.5 ± 0.856 µM
